Data from PubChem BioAssay AID2060905 (Molecular Pharmacology Branch, DTP, NCI, 2025).

Tested on: 282377-053-R-J1-PDC complex spheroid viability
Assay: Anticancer human tumor 282377-053-R-J1-PDC patient-derived colon adenocarcinoma cell line growth inhibition [RAS]
Settings: for IC50: curve of first compound; for viability, T/C: stronger effect = lower value
How it was run: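 Agents were tested in combination matrices in half-log decrements from a top concentration at or near clinical Cmax (10 microM if undetermined). Targets were multi-cell spheroids of tumour lines plus HUVEC and MSC stromal cells.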
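Note: spheroids exposed to agents for seven days before readout.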
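Throughout, for viability, T/C: luminescence viability as percent of DMSO vehicle control wells.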

In the case of C=CC(=O)Nc1cc(Nc2nccc(-c3cn(C)c4ccccc34)n2)c(OC)cc1N(C)CCN(C)C + C#Cc1c(F)ccc2cc(O)cc(-c3ncc4c(N5CC6CCC(C5)N6)nc(OCC56CCCN5CC(F)C6)nc4c3F)c12, the IC50 (second compound 0.0316 µM) is reported as > 1000 nM, the IC50 (second compound 0.1 µM) is reported as > 1000 nM and the IC50 (second compound 0.316 µM) is reported as > 1000 nM. The IC50 (second compound 1 µM) was > 1000 nM, the IC50 (second compound 3.16 µM) was > 1000 nM and the IC50 (second compound 10 µM) was > 1000 nM. It also gave a viability, T/C (second compound 0.0316 µM, first compound 0.00316 µM) of 104%, a viability, T/C (second compound 0.0316 µM, first compound 0.01 µM) of 91.5% and a viability, T/C (second compound 0.0316 µM, first compound 0.0316 µM) of 98.2%. It also gave a viability, T/C (second compound 0.0316 µM, first compound 0.1 µM) of 104%, a viability, T/C (second compound 0.0316 µM, first compound 0.316 µM) of 95.6% and a viability, T/C (second compound 0.0316 µM, first compound 1 µM) of 110%. The viability, T/C (second compound 0.1 µM, first compound 0.00316 µM) was 96.6%, the viability, T/C (second compound 0.1 µM, first compound 0.01 µM) was 90.4% and the viability, T/C (second compound 0.1 µM, first compound 0.0316 µM) was 99.9%. For the same compound, the viability, T/C (second compound 0.1 µM, first compound 0.1 µM) was 91.9%, the viability, T/C (second compound 0.1 µM, first compound 0.316 µM) was 93.5% and the viability, T/C (second compound 0.1 µM, first compound 1 µM) was 97.4%. For the same compound, the viability, T/C (second compound 0.316 µM, first compound 0.00316 µM) was 88.1%, the viability, T/C (second compound 0.316 µM, first compound 0.01 µM) was 85.3% and the viability, T/C (second compound 0.316 µM, first compound 0.0316 µM) was 84.9%. It also gave a viability, T/C (second compound 0.316 µM, first compound 0.1 µM) of 86.1%, a viability, T/C (second compound 0.316 µM, first compound 0.316 µM) of 91.7% and a viability, T/C (second compound 0.316 µM, first compound 1 µM) of 85.9%. The viability, T/C (second compound 1 µM, first compound 0.00316 µM) was 98.5%, the viability, T/C (second compound 1 µM, first compound 0.01 µM) was 100% and the viability, T/C (second compound 1 µM, first compound 0.0316 µM) was 93%. It also gave a viability, T/C (second compound 1 µM, first compound 0.1 µM) of 108%, a viability, T/C (second compound 1 µM, first compound 0.316 µM) of 82.8% and a viability, T/C (second compound 1 µM, first compound 1 µM) of 95.9%. The viability, T/C (second compound 3.16 µM, first compound 0.00316 µM) was 88.2%, the viability, T/C (second compound 3.16 µM, first compound 0.01 µM) was 87.8% and the viability, T/C (second compound 3.16 µM, first compound 0.0316 µM) was 114%. It also gave a viability, T/C (second compound 3.16 µM, first compound 0.1 µM) of 92.3%, a viability, T/C (second compound 3.16 µM, first compound 0.316 µM) of 108% and a viability, T/C (second compound 3.16 µM, first compound 1 µM) of 101%. The viability, T/C (second compound 10 µM, first compound 0.00316 µM) was 103%, the viability, T/C (second compound 10 µM, first compound 0.01 µM) was 94.9% and the viability, T/C (second compound 10 µM, first compound 0.0316 µM) was 108%. The viability, T/C (second compound 10 µM, first compound 0.1 µM) was 73%, the viability, T/C (second compound 10 µM, first compound 0.316 µM) was 80.1% and the viability, T/C (second compound 10 µM, first compound 1 µM) was 99.2%.
For CC1(C)CCC(Nc2ncc(C(F)(F)F)c(-c3c[nH]c4c(P(C)(C)=O)c(C#N)ccc34)n2)CN1 (centres undefined) + CCn1c(-c2cccnc2C(C)OC)c2c3cc(ccc31)N1CCOC(CC(NC(=O)C(C(C)C)N(C)C(=O)C3(F)CCN(C(=O)C#CC(C)(C)N(C)C)CC3)C(=O)N3CCCC(N3)C(=O)OCC(C)(C)C2)C1, the IC50 (second compound 0.000949 µM) was > 300 nM, the IC50 (second compound 0.003 µM) was > 300 nM and the IC50 (second compound 0.00949 µM) was > 300 nM. The IC50 (second compound 0.03 µM) was > 300 nM, the IC50 (second compound 0.0949 µM) was > 300 nM and the IC50 (second compound 0.3 µM) was > 300 nM. For the same compound, the viability, T/C (second compound 0.000949 µM, first compound 0.000949 µM) was 83.9%, the viability, T/C (second compound 0.000949 µM, first compound 0.003 µM) was 124% and the viability, T/C (second compound 0.000949 µM, first compound 0.00949 µM) was 115%. For the same compound, the viability, T/C (second compound 0.000949 µM, first compound 0.03 µM) was 90%, the viability, T/C (second compound 0.000949 µM, first compound 0.0949 µM) was 104% and the viability, T/C (second compound 0.000949 µM, first compound 0.3 µM) was 75.9%. For the same compound, the viability, T/C (second compound 0.003 µM, first compound 0.000949 µM) was 94.1%, the viability, T/C (second compound 0.003 µM, first compound 0.003 µM) was 112% and the viability, T/C (second compound 0.003 µM, first compound 0.00949 µM) was 140%. The viability, T/C (second compound 0.003 µM, first compound 0.03 µM) was 88.6%, the viability, T/C (second compound 0.003 µM, first compound 0.0949 µM) was 89.5% and the viability, T/C (second compound 0.003 µM, first compound 0.3 µM) was 89.3%. The viability, T/C (second compound 0.00949 µM, first compound 0.000949 µM) was 102%, the viability, T/C (second compound 0.00949 µM, first compound 0.003 µM) was 105% and the viability, T/C (second compound 0.00949 µM, first compound 0.00949 µM) was 134%. The viability, T/C (second compound 0.00949 µM, first compound 0.03 µM) was 97%, the viability, T/C (second compound 0.00949 µM, first compound 0.0949 µM) was 80.8% and the viability, T/C (second compound 0.00949 µM, first compound 0.3 µM) was 92.9%. The viability, T/C (second compound 0.03 µM, first compound 0.000949 µM) was 89.3%, the viability, T/C (second compound 0.03 µM, first compound 0.003 µM) was 118% and the viability, T/C (second compound 0.03 µM, first compound 0.00949 µM) was 98.2%. It also gave a viability, T/C (second compound 0.03 µM, first compound 0.03 µM) of 96.3%, a viability, T/C (second compound 0.03 µM, first compound 0.0949 µM) of 91.2% and a viability, T/C (second compound 0.03 µM, first compound 0.3 µM) of 96.9%. For the same compound, the viability, T/C (second compound 0.0949 µM, first compound 0.000949 µM) was 84.5%, the viability, T/C (second compound 0.0949 µM, first compound 0.003 µM) was 135% and the viability, T/C (second compound 0.0949 µM, first compound 0.00949 µM) was 131%. It also gave a viability, T/C (second compound 0.0949 µM, first compound 0.03 µM) of 77%, a viability, T/C (second compound 0.0949 µM, first compound 0.0949 µM) of 75.1% and a viability, T/C (second compound 0.0949 µM, first compound 0.3 µM) of 67.9%. It also gave a viability, T/C (second compound 0.3 µM, first compound 0.000949 µM) of 92.6%, a viability, T/C (second compound 0.3 µM, first compound 0.003 µM) of 107% and a viability, T/C (second compound 0.3 µM, first compound 0.00949 µM) of 110%. It also gave a viability, T/C (second compound 0.3 µM, first compound 0.03 µM) of 84.5%, a viability, T/C (second compound 0.3 µM, first compound 0.0949 µM) of 56.9% and a viability, T/C (second compound 0.3 µM, first compound 0.3 µM) of 53.6%.
